Experimental data published in paper PMC9181938, “Fluorinated Analogues of Lepidilines A and C: Synthesis and Screening of Their Anticancer and Antiviral Activity” (Molecules, 2022).
Where two headings read alike, the source gives them in different places.

Key:
LLC-MK2 cells [1] = experiment: Cytotoxicity MTT assay (0.1–1000 µM), CC50; assay type: cell-based, Macaca mulatta
Vero cells [2] = experiment: Cytotoxicity screening at 10 µM (MTT); assay type: cell-based, Cercopithecus aethiops; conditions: 48 h
LLC-MK2 cells [3] = experiment: Cytotoxicity screening at 10 µM (MTT); assay type: cell-based, Macaca mulatta; conditions: 48 h
NCTC clone 929 cells = experiment: Cytotoxicity screening at 10 µM (MTT); assay type: cell-based, Mus musculus; conditions: 48 h
MRC-5 cells = experiment: Cytotoxicity screening at 10 µM (MTT); assay type: cell-based, Human; conditions: 48 h
HeLa cells = experiment: Cytotoxicity screening at 10 µM (MTT); assay type: cell-based, Human; conditions: 48 h
[4] = system: Human parainfluenza virus type 3 (HPIV-3); experiment: Antiviral activity assay (0.1–1000 µM), IC50; assay type: cell-based
Method: (§1) Antiviral properties of compounds 1e–1g, 1e[PF6], 8a–8d, and 9a were assessed against five viruses: Human herpesvirus 1 (HSV-1, VR-539), Human parainfluenza virus type 3 (HPIV-3, VR-93), Human adenovirus 5 (AdV5, VR-5), Human herpesvirus 5 (HCMV, VR-977), and Encephalomyocarditis virus (EMCV, VR-1479). Viruses were purchased from the American Type Culture Collection (ATCC, Manassas, VA, USA).
(§2) All tested compounds were dissolved in DMSO (dimethyl sulfoxide, Sigma-Aldrich, Darmstadt, Germany) and then suspended in Minimum Essential Medium (MEM; Sigma-Aldrich, Darmstadt, Germany) supplemented with 2% heat-inactivated fetal bovine serum (FBS; Sigma-Aldrich, Darmstadt, Germany), 2 mM L-glutamine (Sigma-Aldrich, Darmstadt, Germany), and 100 units/mL penicillin G with […] streptomycin (Sigma-Aldrich, Darmstadt, Germany).
(§3) Investigated cells were propagated in Minimum Essential Medium (MEM; Sigma-Aldrich, Darmstadt, Germany) supplemented with 10% heat-inactivated fetal bovine serum (FBS; Sigma-Aldrich, Darmstadt, Germany) and 100 units/mL penicillin G with […] streptomycin (Sigma-Aldrich, Darmstadt, Germany). After reaching 80–90% confluency, cells were harvested with trypsin (Life Technologies, Warsaw, Poland) and seeded into 96-well microplates at 2 × 10^5 cells/mL after overnight incubation of cells at 37 °C in a humidified atmosphere containing 5% CO2.
(§4) The culture medium was removed from confluent cells grown in 96-well microplates, and the cells were inoculated with virus solutions in MEM supplemented with 2% FBS and antibiotics (HSV-1 MOI 0.005, 1000 virions/mL; HPIV-3 MOI 0.01, 2000 virions/mL; AdV5 MOI 0.005, 1000 virions/mL; EMCV 0.005, 1000 virions/mL; HCMV 20 PFU/well (plaque-forming units per well). After a 1-h (HSV-1, HPIV-3, AdV5, and EMCV) or 2-h adsorption period (HCMV), residual viral particles were removed, and infected cells were further incubated with MEM supplemented with 2% FBS containing compound concentrations in the range from 0.1 to 1000 µM [38]. All experiments were carried out in triplicate. The cell monolayers were incubated with the investigated compounds at 37 °C in a humidified atmosphere containing 5% CO2 until a cytopathic effect (CPE) was visible. Viral infection was evaluated by the MTT assay (as described previously) or plaque reduction assay. HCMV plaques were counted under an inverted microscope, Olympus IX73 (Olympus, Tokyo, Japan). Antiviral activity was expressed as the concentration required to reduce the number of viral plaques to 50% of the control (virus-infected but untreated).

[5] = system: Encephalomyocarditis virus (EMCV); experiment: Antiviral screening at 10 µM; assay type: cell-based; conditions: EMCV-infected cells; for viability at 10 µM: Cardiovirus A, read-out: Cell line (viability %) EMCV
Method: as §1, with “1a, 1c, 1a[PF6], 1c[PF6], 9b[PF6], 9c[PF6], 10a–10d, 2a,” for “1e–1g, 1e[PF6], 8a–8d,”, “2b” for “9a”
as §2
(§5) Vero, LLC-MK2, NCTC clone 929, MRC-5, and HeLa cells were propagated in Minimum Essential Medium (MEM; Sigma-Aldrich, Darmstadt, Germany) supplemented with 10% heat-inactivated fetal bovine serum (FBS; Sigma-Aldrich, Darmstadt, Germany) and 100 units/mL penicillin G with […] streptomycin (Sigma-Aldrich, Darmstadt, Germany). Upon reaching 80–90% confluency, cells were harvested with 0.25% trypsin in 1 mM EDTA (Life Technologies, Warsaw, Poland) and seeded onto 96-well microplates at 2 × 10^5 cells/mL. After overnight incubation of cells at 37 °C in a humidified atmosphere containing 5% CO2, the culture medium was removed, and cells were inoculated with the respective virus solution in MEM supplemented with 2% FBS and antibiotics (HSV-1 MOI 0.005, 1000 virions/mL; HPIV-3 MOI 0.01, 2000 virions/mL; AdV5 MOI 0.005, 1000 virions/mL, EMCV MOI 0.005, 1000 virions/mL, HCMV 20 PFU (plaque forming units) per well). After a 1-h (HSV-1, HPIV-3, AdV5, and EMCV) or 2-h adsorption period (HCMV), the residual virus was removed, and the infected cells were further incubated with a 100 μL freshly prepared solution of tested compounds diluted with a maintenance medium supplemented with 2% FBS to obtain compound concentrations of 10 µM. The final concentration of DMSO in the medium was 0.1%. All experiments were carried out in triplicate. The cells monolayers were incubated with the compounds at 37 °C in a humidified atmosphere containing 5% CO2 until the typical cytopathic effect (CPE) was visible. Viral infection was evaluated by the MTT assay or plaque reduction assay (HCMV). After incubation with drugs, the cells were treated with 3-(4,5-dimethylthiazol-2-yl)-2,5-diphenyltetrazolium bromide dye solution (MTT, Sigma-Aldrich, Darmstadt, Germany) (25 μL, 5 mg/mL) for 2 h and lysed with solvent solution (100 μL) containing: DMF (Sigma-Aldrich, Darmstadt, Germany) (45 mL), SDS (Sigma-Aldrich, Darmstadt, Germany) (13.5 g), and distilled water (55 mL). After overnight incubation at 37 °C, the optical density at 550 nm and a reference wavelength of 670 nm were measured on a microplate spectrophotometer, Varioskan Lux (Thermo Fisher Scientific, Waltham, MA, USA). The number of HCMV plaques was counted under an inverted microscope Olympus IX73 (Olympus, Tokyo, Japan).

[6] = system: Human adenovirus 5 (AdV5); experiment: Antiviral screening at 10 µM; assay type: cell-based; conditions: AdV5-infected cells
Method: as §1, with “1a, 1c, 1a[PF6], 1c[PF6], 9b[PF6], 9c[PF6], 10a–10d, 2a,” for “1e–1g, 1e[PF6], 8a–8d,”, “2b” for “9a”
as §2, §5

[7] = system: Human herpesvirus 1 (HSV-1); experiment: Antiviral screening at 10 µM; assay type: cell-based; conditions: HSV-1-infected cells; for Cell line (viability %) HSV-1: antiviral screening
Method: as §1, with “1a, 1c, 1a[PF6], 1c[PF6], 9b[PF6], 9c[PF6], 10a–10d, 2a,” for “1e–1g, 1e[PF6], 8a–8d,”, “2b” for “9a”
as §2, §5

[8] = system: Human parainfluenza virus type 3 (HPIV-3); experiment: Antiviral screening at 10 µM; assay type: cell-based; conditions: HPIV-3-infected cells; for Cell line (viability %) HPIV-3: antiviral screening
Method: as §1, with “1a, 1c, 1a[PF6], 1c[PF6], 9b[PF6], 9c[PF6], 10a–10d, 2a,” for “1e–1g, 1e[PF6], 8a–8d,”, “2b” for “9a”
as §2, §5

[9] = Cytotoxicity MTT assay (0.1–1000 µM), CC50; assay type: cell-based, Macaca mulatta; conditions: Macaca mulatta, LLC-MK2 cells, LLC-MK2, MTT, 48 h; read-out: CC50 Normal Cell Lines LLC-MK2
[10] = Cytotoxicity screening at 10 µM (MTT); assay type: cell-based, Cercopithecus aethiops; conditions: Cercopithecus aethiops, Vero cells, read-out: Cell line (viability %) Vero
[11] = Cytotoxicity screening at 10 µM (MTT); assay type: cell-based, Macaca mulatta; conditions: Macaca mulatta, LLC-MK2 cells, read-out: Cell line (viability %) LLC-MK2
[12] = Cytotoxicity screening at 10 µM (MTT); assay type: cell-based, Human; conditions: human, MRC-5 cells, read-out: Cell line (viability %) MRC-5
[13] = Cytotoxicity screening at 10 µM (MTT); assay type: cell-based, Human; conditions: human, HeLa cells, read-out: Cell line (viability %) HeLa
[14] = Cytotoxicity MTT assay (0.1–1000 µM), CC50; assay type: cell-based, Cercopithecus aethiops; conditions: Cercopithecus aethiops, Vero cells, read-out: CC50 Normal Cell Lines Vero
Vero cells [15] = experiment: Cytotoxicity MTT assay (0.1–1000 µM), CC50; assay type: cell-based, Cercopithecus aethiops; conditions: 48 h
[16] = Cytotoxicity MTT assay (0.1–1000 µM), CC50; assay type: cell-based, Mus musculus; conditions: Mus musculus, NCTC clone 929 cells, NCTC clone 929, MTT, 48 h; read-out: CC50 Normal Cell Lines NCTC Clone 929
[17] = Cytotoxicity MTT assay (0.1–1000 µM), CC50; assay type: cell-based, Human; conditions: human, MRC-5 cells, MRC-5, MTT, read-out: CC50 Normal Cell Lines MRC-5
[18] = Cytotoxicity MTT assay (0.1–1000 µM), CC50; assay type: cell-based, Human; conditions: human, HeLa cells, MTT, 48 h, read-out: CC50 Cancer Cell Lines HeLa
[19] = Cytotoxicity MTT assay (0.1–1000 µM), CC50; assay type: cell-based, Human; conditions: human, A549 cells, read-out: CC50 Cancer Cell Lines A549
[20] = Cytotoxicity MTT assay (0.1–1000 µM), CC50; assay type: cell-based, Human; conditions: human, HepG2 cells, read-out: CC50 Cancer Cell Lines HepG2
[21] = system: Human herpesvirus 5 (HCMV); experiment: Antiviral activity assay (0.1–1000 µM), IC50, plaque reduction; assay type: cell-based; conditions: Human betaherpesvirus 5, 20 PFU/well
Method: as §1, §2, §3, §4

[22] = system: Encephalomyocarditis virus (EMCV); experiment: Antiviral activity assay (0.1–1000 µM), IC50; assay type: cell-based; conditions: Cardiovirus A, MOI 0.005, read-out: IC50 EMCV
Method: as §1, §2, §3, §4

[23] = system: Human adenovirus 5 (AdV5); experiment: Antiviral activity assay (0.1–1000 µM), IC50; assay type: cell-based; conditions: Human mastadenovirus C; AdV5, MOI 0.005; read-out: IC50 AdV5
Method: as §1, §2, §3, §4

[24] = system: Human herpesvirus 1 (HSV-1); experiment: Antiviral activity assay (0.1–1000 µM), IC50; assay type: cell-based; conditions: Human alphaherpesvirus 1; HSV-1, MOI 0.005
Method: as §1, §2, §3, §4

[25] = Cytotoxicity screening at 10 µM (MTT); assay type: cell-based, Mus musculus; conditions: Mus musculus, NCTC clone 929 cells, read-out: Cell line (viability %) NCTC clone 929
[26] = LLC-MK2, MTT, 48 h, read-out: CC50 Normal Cell Lines LLC-MK2
[27] = Table S2, range 0.1-1000 µM, LLC-MK2, read-out: Cell line (CC50 M) LLC-MK2
[28] = Table S4, range 0.1-1000 µM, HPIV-3, read-out: IC50 (M) HPIV-3

SMILES	CC50 (LLC-MK2 cells [1]; [26])	CC50 (LLC-MK2 cells [1]; [27])	Cell line (viability %) Vero (Vero cells [2])	Cell line (viability %) LLC-MK2 (LLC-MK2 cells [3])	Cell line (viability %) NCTC clone 929 (NCTC clone 929 cells)	Cell line (viability %) MRC-5 (MRC-5 cells)	Cell line (viability %) HeLa (HeLa cells)	IC50 [4, 28]	Cell line (viability %) EMCV [5]	Cell line (viability %) AdV5 [6]	Cell line (viability %) HSV-1 [7]	Cell line (viability %) HPIV-3 [8]	CC50 at 48 h [9]	viability at 48 h, 10 µM [10]	viability at 48 h, 10 µM [12]	viability at 48 h, 10 µM [13]	viability at 10 µM [5]	also measured
Cc1c(C)[n+](Cc2ccccc2)cn1Cc1ccccc1 [1a[PF6]]	< 80 µM	32.7 ± 6.81 µM	89.0%	90.3%	56.2%	78.6%	23.4%	> 3.27e-05 M	7.8%	15.3%	17.5%	62.4%						
Cc1c(C)[n+](Cc2ccccc2)cn1Cc1ccccc1 [Compound 1a, lepidiline A, reference compound]		67.7 ± 2.52 µM			86.0%			> 6.77e-05 M		45.8%	48.0%	86.0%	< 80 µM	90.5%	90.2%	43%	7.4%	viability at 48 h, 10 µM [11]: 76.3%
COc1cccc(Cn2c[n+](Cc3ccccc3)c(C)c2C)c1 [1c[PF6]]	< 80 µM	75.3 ± 5.51 µM	91.3%	55.6%	8.5%	76.9%	11.4%	> 7.53e-05 M	7.9%	17.1%	23.3%	91.1%						
Cc1c(C)[n+](Cc2cccc(C(F)(F)F)c2)cn1Cc1ccccc1.[Cl-] [Compound 1g, 1-Benzyl-4,5-dimethyl-3-[3-(trifluoromethyl)benzyl]imidazolium chloride]													66.2 ± 2.25 µM					CC50 at 48 h [14]: 0.107 ± 0.012 µM; CC50 Normal Cell Lines Vero (Vero cells [15]): toxic; CC50 at 48 h [16]: 30 ± 2 µM; CC50 at 48 h [17]: 54.3 ± 1.16 µM; CC50 at 48 h [18]: 0.053 ± 0.006 µM; CC50 at 48 h [19]: 10.3 ± 1.04 µM; CC50 at 48 h [20]: 130 ± 5 µM; IC50 [21]: > 54.3 µM; IC50 [22]: > 30 µM; IC50 [23]: > 0.053 µM; IC50 [24]: > 0.107 µM; IC50 ([4]; Human respirovirus 3, HPIV-3, MOI 0.01, read-out: IC50 HPIV-3): > 6.62e-05 M; melting point: 120 to 122 °C
COc1cccc(Cn2c[n+](Cc3ccccc3)c(C)c2C)c1 [Compound 1c, lepidiline C, reference compound]		28.3 ± 5.86 µM		78.4%				> 2.83e-05 M					< 80 µM	90.7%	76.7%	8.9%	7.7%	viability at 48 h, 10 µM [25]: 8.8%; viability at 10 µM ([6]; Human mastadenovirus C, read-out: Cell line (viability %) AdV5): 17.9%; viability at 10 µM ([7]; Human alphaherpesvirus 1, antiviral screening, read-out: Cell line (viability %) HSV-1): 18.6%; viability at 10 µM ([8]; Human respirovirus 3, antiviral screening, read-out: Cell line (viability %) HPIV-3): 90.4%
